{"source": "patent US20240009269A1", "about": "(priority 2020, published 2024)", "key": {"[1]": {"experiment": "Estimated systemic exposure after intra-arterial injection", "type": "in vivo, mouse"}, "mouse brain": {"system": "mouse brain", "experiment": "Safety of BBBO in mice (neurological deficits, MRI, histology)", "type": "in vivo", "procedure": "273-285] in ImageJ. […] Subsequently, animals were sacrificed for further histological assessment.\nIn brief, each post-contrast image was first fitted into two Gaussian distributions, and the cutoff of signal intensity was determined. Data analysis and calculation of area fraction was performed using custom-written MATLAB scripts. 24 hours and 7 days after melittin treatment, animals were trans-cardially perfused with 5% sucrose in deionized water and then 4% paraformaldehyde in phosphate buffered saline. The brains were cryopreserved in 30% sucrose and cryo-sectioned in 30 μm slices. Primary antibodies used in the study are described in Table 2. Goat anti-rabbit Alexa Fluor-488 or Alexa Fluor-594 (1:250, Life Technologies) were used as secondary antibodies for fluorescence assessment using an inverted microscope (Zeiss, Axio Observer Z1). For demyelination assessment, eriochrome cyanine R staining was performed as described previously [Golubczyk, D., et al., Mol Neurobiol, 2019. 56(8): p. 5740-5748] with assessment using bright-field microscopy. Quantitation of immunohistochemistry (based on relative fluorescence intensity) and MRI analysis (based on intensity) were performed using Image J. For each mouse, three ROIs of the ipsilateral and contralateral BBBO regions were drawn, respectively."}, "mice": {"system": "mice", "details": "intraperitoneal administration; cited from earlier work"}, "[2]": {"system": "tissue-engineered dhBMECs microvessels", "experiment": "BBB opening in tissue-engineered BBB microvessels (500 kDa dextran leakage)", "type": "cell-based, human", "procedure": "Three-dimensional blood-brain barrier microvessels were fabricated as previously reported (FIGS. 10A and 10B) [Linville, R. M., et al., Biomaterials, 2019. 190-191: p. 24-37] 150 μm diameter and 1 cm long channels were patterned in 7 mg mL^−1 type I collagen (Corning) using nitinol wire (Malin Co.) housed within polydimethylsiloxane (PDMS; Dow Corning). Channels were cross-linked by incubation in 20 mM genipin (Wako Biosciences) for 2 hours to increase cell adhesion. 2dhBMECs were suspended in BBB induction medium at a concentration of 5×10^6 cells mL^−1 and seeded into channels. Microvessels were perfused using BBB induction medium for 24 hours and then switched to BBB maintenance medium. During cell seeding and the first day of perfusion, 10 μM ROCK inhibitor Y27632 (ATCC) was supplemented to increase adhesion. An average shear stress of ˜2 dyn cm^−2 was maintained with a reservoir height difference (Δh) of 3 cm, corresponding to a volumetric flow rate of ˜250 μL h^−1 (FIG. 11D). This shear stress was estimated from the Poiseuille equation: τ=μQ)/2πd3 where μ is the media dynamic viscosity, Q is the volumetric flow rate, and d is the microvessel diameter.\nLive-cell imaging was conducted to study dynamic changes in in vitro BBB permeability and microvessel structure. Microvessels were imaged using a 10×objective equipped on an inverted microscope (Nikon Eclipse TiE) maintained at 37° C. and 5% CO2 (FIG. S2C). Epifluorescence illumination was provided by an X-Cite 120LEDBoost (Excelitas Technologies). Phase contrast and fluorescence images were acquired every two minutes with the focal plane set to the microvessel midplane. The entire image collected consists of ten adjacent imaging frames. […] A dextran solute panel comprised of 200 μM Cascade Blue-conjugated 3 kDa dextran (Cat. No. D7132. Thermo Fisher Scientific), 16 μM Alexa Fluor647-conjugated 10 kDa dextran (Cat. No. D22914, Thermo Fisher Scientific), and 1.2 μM fluorescein-conjugated 500 kDa dextran (Cat. No. D7136, Thermo Fisher Scientific) was prepared in BBB maintenance medium. Fluorophores were independently excited and the respective emissions were collected using: Nikon UV-2E/C for 3 kDa dextran (50 ms exposure), Chroma 41008 for 10 kDa dextran (20 ms exposure), and Nikon B-2E/C for 500 kDa dextran (50 ms exposure).\nImage processing was performed using ImageJ (NIH) to quantify BBB opening (FIGS. 11A-11D). First, images were cropped to a standard size of 6 mm×0.6 mm. To determine the spatial heterogeneity of BBB permeability, microvessels were sectioned into 10 regions of interest (ROIs), each a 0.6 mm×0.6 mm square (FIG. 11A). For each ROI, the integrated pixel density was plotted over time (FIG. 11A). The permeability (cm s^−1) was calculated using P=(r/2)(1/ΔI)(dI/dt), where r is the vessel radius, ΔI is the increase in fluorescence intensity upon perfusion of the fluorophore, and (dI/dt) is the rate of increase in fluorescence intensity as solute exits into the gel. […] To visually display permeability dynamics, heatmaps were generated from 90 instantaneous permeability values across the 10 ROIs (x-axis) and nine 10-minute periods (y-axis). […] 28(1): p. 41-51 in ImageJ (FIG. 11B). Under baseline conditions, thresholding results in the lumen designated as white (1) and extracellular matrix (ECM) as black (0). […] From binarized images, individual focal leaks were manually counted over time. Leaks emerging from the sides of the image frame were not counted. To quantify the duration of a BBB opening effect, we identified the time at which the last focal leak appeared and termed the focal leak reversibility time constant (τfocal leaks)."}}}
{"compound": "CC[C@H](C)[C@H](NC(=O)CN)C(=O)NCC(=O)N[C@@H](C)C(=O)N[C@H](C(=O)N[C@@H](CC(C)C)C(=O)N[C@@H](CCCCN)C(=O)N[C@H](C(=O)N[C@@H](CC(C)C)C(=O)N[C@H](C(=O)N[C@H](C(=O)NCC(=O)N[C@@H](CC(C)C)C(=O)N1CCC[C@H]1C(=O)N[C@@H](C)C(=O)N[C@@H](CC(C)C)C(=O)N[C@H](C(=O)N[C@@H](CO)C(=O)N[C@@H](Cc1c[nH]c2ccccc12)C(=O)N[C@H](C(=O)N[C@@H](CCCCN)C(=O)N[C@@H](CCCNC(=N)N)C(=O)N[C@@H](CCCCN)C(=O)N[C@@H](CCCNC(=N)N)C(=O)N[C@@H](CCC(N)=O)C(=O)N[C@@H](CCC(N)=O)C(N)=O)[C@@H](C)CC)[C@@H](C)CC)[C@@H](C)O)[C@@H](C)O)C(C)C)C(C)C", "note": "[melittin]", "values": [{"measurement": "systemic dose, fold lower than the LD50", "setting": "[1]; 3 μM·min melittin, mouse weight of 20 g assumed", "value": "~50", "unit": "fold"}, {"measurement": "melittin concentration after dilution in the bloodstream", "setting": "[1]; 3 μM·min, 150 μL injection diluted into 1.2 mL of whole blood (assumed)", "value": 0.33, "unit": "µM"}, {"measurement": "reduction of melittin concentration upon exiting the brain", "setting": "[1]; dilution in the bloodstream assumed", "value": "~10", "unit": "fold"}, {"measurement": "long-term survival (30 days)", "setting": "mouse brain; 3 μM·minute", "value": "reached that endpoint without complications"}, {"measurement": "mortality", "setting": "mouse brain; 3 μM·minute, 11 mice", "value": "One mouse in this group died within 12 hours"}, {"measurement": "neurological deficits (paralysis, seizure, or rotation)", "setting": "mouse brain; 3 μM·minute, 11 mice", "value": "all animals except one woke up from anesthesia without apparent neurological deficits"}, {"measurement": "GFAP, Iba1, NeuN, and caspase-3 intensities between hemispheres", "setting": "mouse brain; 3 μM·minute, 24 hours", "value": "not statistically different"}, {"measurement": "MRI (T2, SWI)", "setting": "mouse brain; 3 μM·minute, 24 hours", "value": "no evidence of edema or inflammation on T2 scans or micro-hemorrhages on susceptibility weighted imaging (SWI) scans"}, {"measurement": "GFAP and Iba1 intensity, ipsilateral vs contralateral", "setting": "mouse brain; 3 μM·minute, 7 days", "value": "no statistically significant differences"}, {"measurement": "MRI", "setting": "mouse brain; 3 μM·minute, 7 days", "value": "no abnormalities were detected"}, {"measurement": "NeuN and caspase-3 intensity in the ipsilateral hemisphere", "setting": "mouse brain; 3 μM·minute, 7 days", "value": "no statistically significant change"}, {"measurement": "eriochrome cyanine staining (myelin)", "setting": "mouse brain; 3 μM·minute, 7 days, hippocampus", "value": "normal myelin"}, {"measurement": "behavior after dosing", "setting": "mouse brain; 5 μM·minute", "value": "mice displayed rotational behavior indicating neurological damage"}, {"measurement": "LD50", "setting": "mice", "value": 3.2, "unit": "mg/kg"}, {"measurement": "increase in delivery of 500 kDa dextran across the blood-brain barrier in vitro", "setting": "[2]", "value": "≤ 25", "unit": "fold"}, {"measurement": "500 kDa dextran permeability", "setting": "[2]; 5 μM melittin for 90 minutes, continuous", "value": "high 500 kDa dextran permeability"}, {"measurement": "average permeability of 500 kDa dextran, fold higher than baseline", "setting": "[2]; 50 μM·minute dose", "value": "~25", "unit": "fold"}, {"measurement": "focal leak density relative to mannitol", "setting": "[2]; above threshold doses, retrospective comparison", "value": 3, "unit": "fold"}, {"measurement": "focal leaks 24 hours after melittin exposure", "setting": "[2]; all doses, 3-100 μM·minute, 500 kDa dextran", "value": "focal leaks were not observed"}, {"measurement": "barrier function after 24 hours", "setting": "[2]; high doses", "value": "barrier function was regained 24 hours later"}, {"measurement": "BBBO", "setting": "[2]; high doses (10-minute 10 μM)", "value": "induced sustained BBBO, but did not recover during the 90 minutes of imaging"}, {"measurement": "BBBO", "setting": "[2]; intermediate doses (5-minute 5 μM)", "value": "induced BBBO and resulted in recovery during the 90 minute imaging period"}, {"measurement": "character of focal leaks", "setting": "[2]; intermediate doses (20-50 μM·minute)", "value": "transient"}, {"measurement": "BBBO", "setting": "[2]; low doses (2-minute 1.5 μM)", "value": "did not induce BBBO"}]}
